test system: human leukocytes (LTB4 production, calcium ionophore stimulated); experiment: Human Leukocyte LTB4 Inhibition Assay; format: cell-based; conditions: LTB4 by ELISA, read-out: LTB4 HLA IC50
Description: Human Leukocyte LTB4 Inhibition Assay
A non-limiting example of a human leukocyte inhibition assay is as follows; Blood was drawn from consenting human volunteers into heparanized tubes and 3% dextran 0.9% saline ⅓ rd volume added. After sedimentation of red blood cells a hypotonic lysis of remaining red blood cells was performed and leukocytes sedimented at 1200 rpm. The pellet was resuspended at 1.25×10^5 cells/ml and aliquoted into wells containing 1 μL 100% DMSO (vehicle) or 2.5 μL drug in 100% DMSO. Samples were incubated for 5 minutes at 37° C. and 2 μL calcium ionophore […] (from a 50 mM DMSO stock diluted just prior to the assay in Hanks balanced salt solution (Invitrogen)) to 1.25 mM) was added, solutions mixed and incubated for 30 minutes at 37° C. Samples were centrifuged at 1,200 rpm (−200×g) for 10 minutes at 4° C., plasma removed and a 1:4 dilution assayed for LTB4 concentration using ELISA (Assay Designs). Drug concentrations to achieve 50% inhibition (IC50's) of vehicle LTB4 were determined by nonlinear regression (Graphpad Prism) of % inhibition versus log drug concentration.

SMILES | IC50 [nM]
CCC(O)(c1cn(Cc2ccn3c(-c4ccc(F)cc4)c(C#N)cc3c2)nn1)C(F)(F)F (stereo not shown) [Compound 1-22, 3-(4-Fluoro-phenyl)-7-[4-(1-hydroxy-1-trifluoromethyl-propyl)-[1,2,3]triazol-1-ylmethyl]-indolizine-2-carbonitrile] | < 300

same assay, conditions: Leukocyte, LTB4 by ELISA, read-out: LTB4 HLA IC50

SMILES | IC50 [nM]
CCC(O)(c1cn(Cc2ccn3c(-c4ccc(F)cc4)c(C(C)(C)O)cc3c2)nn1)C(F)(F)F (stereo not shown) [Compound 1-7, 1,1,1-Trifluoro-2-{1-[3-(4fluoro-phenyl)-2-(1-hydroxy-1-methyl-ethyl)-indolizin-7-ylmethyl]-1H-[1,2,3]triazol-4-yl}-butan-2-ol] | < 300
CCOC(=O)c1cc2cc(CNc3nnc(C(O)(CC)C(F)(F)F)o3)ccn2c1-c1ccc(F)cc1 (stereo not shown) [Compound 1-11, 3-(4-Fluoro-phenyl)-7-{[5-(1-hydroxy-1-trifluoromethyl-propyl)-[1,3,4]oxadiazol-2-ylamino]-methyl}-indolizine-2-carboxylic acid ethyl ester] | < 300
CCOC(=O)c1nc2cc(CNc3nnc(C(O)(CC)C(F)(F)F)o3)ccn2c1-c1ccccc1 (stereo not shown) [Compound 1-12, 7-{[5-(1-Hydroxy-1-trifluoromethyl-propyl)-[1,3,4]oxadiazol-2-ylamino]-methyl}-3-phenyl-imidazo[1,2-a]pyridine-2-carboxylic acid ethyl ester] | < 300
CCOC(=O)c1nc2cc(Cn3cc(C(O)(CC)C(F)(F)F)nn3)ccn2c1-c1ccc(F)cc1 (stereo not shown) [Compound 1-13, 3-(4-Fluoro-phenyl)-7-[4-(1-hydroxy-1-trifluoromethyl-propyl)-[1,2,3]triazol-1-ylmethyl]-imidazo[1,2-a]pyridine-2-carboxylic acid ethyl ester] | < 300
CCC(O)(c1cn(Cc2ccn3c(-c4ccc(F)cc4)c(C(N)=O)nc3c2)nn1)C(F)(F)F (stereo not shown) [Compound 1-14, 3-(4-Fluoro-phenyl)-7-[4-(1-hydroxy-1-trifluoromethyl-propyl)-[1,2,3]triazol-1-ylmethyl]-imidazo[1,2-a]pyridine-2-carboxylic acid amide] | 300 to 1000
CCOC(=O)c1c(Br)c2cc(CNc3nnc(C(O)(CC)C(F)(F)F)o3)ccn2c1-c1ccc(F)cc1 (stereo not shown) [Compound 1-15, 1-Bromo-3-(4-fluoro-phenyl)-7-{[5-(1-hydroxy-1-trifluoromethyl-propyl)-[1,3,4]oxadiazol-2-ylamino]-methyl}-indolizine-2-carboxylic acid ethyl ester] | < 300
CCC(O)(c1cn(Cc2ccn3c(-c4ccc(F)cc4)c(C#N)cc3c2)nn1)C(F)(F)F (stereo not shown) [Compound 1-16, 3-(4-Fluoro-phenyl)-7-[4-(1-hydroxy-1-trifluoromethyl-propyl)-[1,2,3]triazol-1-ylmethyl]-indolizine-2-carbonitrile] | < 300
CCC(O)(c1nnc(NCc2ccn3c(-c4ccc(F)cc4)c(C(N)=O)c(Br)c3c2)o1)C(F)(F)F (stereo not shown) [Compound 1-17, 1-Bromo-3-(4-fluoro-phenyl)-7-{[5-(1-hydroxy-1-trifluoromethyl-propyl)-[1,3,4]oxadiazol-2-ylamino]-methyl}-indolizine-2-carboxylic acid amide] | < 300
CCC(O)(c1nnc(NCc2ccn3c(-c4ccc(F)cc4)c(C#N)c(Br)c3c2)o1)C(F)(F)F (stereo not shown) [Compound 1-18, 1-Bromo-3-(4-fluoro-phenyl)-7-{[5-(1-hydroxy-1-trifluoromethyl-propyl)-[1,3,4]oxadiazol-2-ylamino]-methyl}-indolizine-2-carbonitrile] | < 300
CCC(O)(c1nnc(NCc2ccn3c(-c4ccc(F)cc4)c(C(N)=O)cc3c2)o1)C(F)(F)F (stereo not shown) [Compound 1-19, 3-(4-Fluoro-phenyl)-7-{[5-(1-hydroxy-1-trifluoromethyl-propyl)-[1,3,4]oxadiazol-2-ylamino]-methyl}-indolizine-2-carboxylic acid amide] | < 300
CCC(O)(c1cn(Cc2ccn3c(-c4ccc(F)cc4)c(-c4nn[nH]n4)cc3c2)nn1)C(F)(F)F (stereo not shown) [Compound 1-23, 1,1,1-Trifluoro-2-{1-[3-(4-fluoro-phenyl)-2-(2H-tetrazol-5-yl)-indolizin-7-ylmethyl]-1H-[1,2,3]triazol-4-yl}-butan-2-ol] | > 1000
CCOC(=O)c1cc2cc(Cn3cc(C(O)(CC)C(F)(F)F)nn3)ccn2c1-c1cccnc1 (stereo not shown) [Compound 1-24, 7-[4-(1-Hydroxy-1-trifluoromethyl-propyl)-[1,2,3]triazol-1-ylmethyl]-3-pyridin-3-yl-indolizine-2-carboxylic acid ethyl ester] | < 300
CCC(O)(c1cn(Cc2ccn3c(-c4cccnc4)c(C(N)=O)cc3c2)nn1)C(F)(F)F (stereo not shown) [Compound 1-25, 7-[4-(1-Hydroxy-1-trifluoromethyl-propyl)-[1,2,3]triazol-1-ylmethyl]-3-pyridin-3-yl-indolizine-2-carboxylic acid amide] | > 1000
CCC(O)(c1cn(Cc2ccn3c(-c4cccnc4)c(C#N)cc3c2)nn1)C(F)(F)F (stereo not shown) [Compound 1-26, 7-[4-(1-Hydroxy-1-trifluoromethyl-propyl)-[1,2,3]triazol-1-ylmethyl]-3-pyridin-3-yl-indolizine-2-carbonitrile] | < 300
CCOC(=O)c1cc2cc(Cn3cc(C(O)(CC)C(F)(F)F)nn3)ccn2c1-c1ccc(Cl)cc1 (stereo not shown) [Compound 1-27, 3-(4-Chloro-phenyl)-7-[4-(1-hydroxy-1-trifluoromethyl-propyl)-[1,2,3]triazol-1-ylmethyl]-indolizine-2-carboxylic acid ethyl ester] | < 300
CCC(O)(c1cn(Cc2ccn3c(-c4ccc(Cl)cc4)c(C(N)=O)cc3c2)nn1)C(F)(F)F (stereo not shown) [Compound 1-28, 3-(4-Chloro-phenyl)-7-[4-(1-hydroxy-1-trifluoromethyl-propyl)-[1,2,3]triazol-1-ylmethyl]-indolizine-2-carboxylic acid amide] | < 300
CCOC(=O)c1cc2cc(Cn3cc(C(O)(CC)C(F)(F)F)nn3)ccn2c1-c1ccc(F)nc1 (stereo not shown) [Compound 1-29, 3-(6-Fluoro-pyridin-3-yl)-7-[4-(1-hydroxy-1-trifluoromethyl-propyl) [1,2,3]triazol-1-ylmethyl]-indolizine-2-carb oxylic acid ethyl ester] | < 300
CCC(O)(c1cn(Cc2ccn3c(-c4ccc(F)cc4)c(CO)cc3c2)nn1)C(F)(F)F (stereo not shown) [Compound 1-30, 1,1,1-Trifluoro-2-{1-[3-(4-fluoro-phenyl)-2-hydroxymethyl-indolizin-7-ylmethyl]-1H-[1,2,3]triazol-4-yl}-butan-2-ol] | < 300
CCC(O)(c1cn(Cc2ccn3c(-c4ccc(F)nc4)c(C(N)=O)cc3c2)nn1)C(F)(F)F (stereo not shown) [Compound 1-31, 3-(6-Fluoro-pyridin-3-yl)-7-[4-(1-hydroxy-1-trifluoromethyl-propyl)-[1,2,3]triazol-1-ylmethyl]-indolizine-2-carboxylic acid amide] | > 1000
CCC(O)(c1cn(Cc2ccn3c(-c4ccc(F)nc4)c(C#N)cc3c2)nn1)C(F)(F)F (stereo not shown) [Compound 1-32, 3-(6-Fluoro-pyridin-3-yl)-7-[4-(1-hydroxy-1-trifluoromethyl-propyl)-[1,2,3]triazol-1-ylmethyl]-indolizine-2-carbonitrile] | < 300
CCC(O)(c1cn(Cc2ccn3c(-c4ccc(F)cc4)c(C=O)cc3c2)nn1)C(F)(F)F (stereo not shown) [Compound 1-33, 3-(4-Fluoro-phenyl)-7-[4-(1-hydroxy-1-trifluoromethyl-propyl)-[1,2,3]triazol-1-ylmethyl]-indolizine-2-carbaldehyde] | < 300
CCC(O)(c1cn(Cc2ccn3c(-c4ccc(F)cc4)c(CS(C)(=O)=O)cc3c2)nn1)C(F)(F)F (stereo not shown) [Compound 1-34, 1,1,1-Trifluoro-2-{1-[3-(4-fluoro-phenyl)-2-methanesulfonylmethyl-indolizin-7-ylmethyl]-1H-[1,2,3]triazol-4-yl}-butan-2-ol] | < 300
CCC(O)(c1cn(Cc2ccn3c(-c4ccc(OC)nc4)c(C(N)=O)cc3c2)nn1)C(F)(F)F (stereo not shown) [Compound 1-35, 7-[4-(1-Hydroxy-1-trifluoromethyl-propyl)-[1,2,3]triazol-1-ylmethyl]-3-(6-methoxy-pyridin-3-yl)-indolizine-2-carboxylic acid amide] | 300 to 1000
CCOC(=O)c1cc2cc(Cn3cc(C(O)(CC)C(F)(F)F)nn3)ccn2c1-c1ccc(OC)nc1 (stereo not shown) [Compound 1-36, 7-[4-(1-Hydroxy-1-trifluoromethyl-propyl)-[1,2,3]triazol-1-ylmethyl]-3-(6-methoxy-pyridin-3-yl)-indolizine-2-carboxylic acid ethyl ester] | < 300
CCOC(=O)CCNCc1cc2cc(Cn3cc(C(O)(CC)C(F)(F)F)nn3)ccn2c1-c1ccc(F)cc1 (stereo not shown) [Compound 1-37, 3-({3-(4-Fluoro-phenyl)-7-[4-(1-hydroxy-1-trifluoromethyl-propyl)-[1,2,3]triazol-1-ylmethyl]-indolizin-2-ylmethyl}-amino)-propionic acid ethyl ester] | < 300
CCC(O)(c1cn(Cc2ccn3c(-c4ccc(F)cc4)c(CN4CCOCC4)cc3c2)nn1)C(F)(F)F (stereo not shown) [Compound 1-38, 1,1,1-Trifluoro-2-{1-[3-(4-fluoro-phenyl)-2-morpholin-4-ylmethyl-indolizin-7-ylmethyl]-1H-[1,2,3]triazol-4-yl}-butan-2-ol] | 300 to 1000
CCC(O)(c1cn(Cc2ccn3c(-c4ccc(F)cc4)c(/C=C/C(=O)OC)cc3c2)nn1)C(F)(F)F (stereo not shown) [Compound 1-39, (E)-3-{3-(4-Fluoro-phenyl)-7-[4-(1-hydroxy-1-trifluoromethyl-propyl)-[1,2,3]triazol-1-ylmethyl]-indolizin-2-yl}-acrylic acid methyl ester] | < 300

From patent US20130005721A1, “INDOLIZINE INHIBITORS OF 5-LIPOXYGENASE” (PANMIRA PHARMACEUTICALS, LLC, priority 2009, published 2013)
